Laboratory results: ChEMBL document CHEMBL6078630, “Design, synthesis, and bioactivity investigation of novel cyclic lipopeptide antibiotics targeting top-priority multidrug-resistant gram-negative bacteria” (Eur J Med Chem, 2024)
Bridge positions count the residues as written; N and C are the ends. Square brackets hold non-standard residues; d marks the D form. Peptide text beside a SMILES is read from it. * marks the point of attachment. Octanoyl(6-Me) = CCC(C)CCCCC(=O)*; Dab = NCC[C@H](N)C(=O)O

How the values were obtained:
[1] = Acute toxicity in iv dosed Swiss mouse assessed as maximum tolerated dose measured after 24 hrs; type: organism-based; conditions: in vivo
[2] = test system: Klebsiella pneumoniae; test: Antibacterial activity against carbapenem-resistant Klebsiella pneumoniae ATCC BAA-1705 infected in ICR mouse model administered intravenously with compound at 1 and 6 hrs post-infection and measured after 7 days; type: functional; conditions: ATCC BAA-1705, 168 h, route iv, time 7 day
[3] = test system: Acinetobacter baumannii; test: Antibacterial activity against carbapenem-resistant Acinetobacter baumannii NCTC13304 infected in ICR mouse model administered intravenously with compound at 1 and 6 hrs post-infection and measured after 7 days; type: functional; conditions: NCTC13304, 168 h, route iv, time 7 day
[4] = test system: Escherichia coli; test: Antibacterial activity against Escherichia coli ATCC BAA-2523 infected in ICR mouse model administered intravenously with compound at 1 and 6 hrs post-infection and measured after 7 days; type: functional; conditions: ATCC BAA-2523, 168 h, route iv, time 7 day
[5] = test system: Pseudomonas aeruginosa; test: Antibacterial activity against Pseudomonas aeruginosa ATCC 27853 infected in ICR mouse model administered intravenously with compound at 1 and 6 hrs post-infection and measured after 7 days; type: functional; conditions: ATCC 27853, 168 h, route iv, time 7 day
[6] = test system: Pseudomonas aeruginosa; test: Antibacterial activity against Pseudomonas aeruginosa ATCC 27853 infected in ICR mouse model infected in ICR mouse model assessed as survival rate at 20 mg/kg, iv administered at 1 and 6 hrs post-infection and measured after 7 days relative to control; type: functional; conditions: ATCC 27853, 168 h, time 7 day

`CCC(C)CCCCC(=O)N[C@@H](CCN)C(=O)N[C@H](C(=O)N[C@@H](CCN)C(=O)N[C@H]1CCNC(=O)[C@H]([C@@H](C)O)NC(=O)[C@H](CCN)NC(=O)[C@H](CCN)NC(=O)[C@H](CC(C)C)NC(=O)[C@@H](CC(C)C)NC(=O)[C@H](CCN)NC1=O)[C@@H](C)O` (stereo partly drawn) ({Octanoyl(6-Me)}-[Dab]T[Dab][Dab][Dab][dL]L[Dab][Dab]T; lactam 4-C) [listing 1 of 2 here] showed an MTD at 24 h [1] of 5.3 mg/kg.

For `CCC(C)CCCCC(=O)N[C@@H](CCN)C(=O)N[C@H](C(=O)N[C@@H](CCN)C(=O)N[C@H]1CCNC(=O)[C@H]([C@@H](C)O)NC(=O)[C@H](CCN)NC(=O)[C@H](CCN)NC(=O)[C@H](CC(C)C)NC(=O)[C@@H](CC(C)C)NC(=O)[C@H](CCN)NC1=O)[C@@H](C)O` (stereo partly drawn) ({Octanoyl(6-Me)}-[Dab]T[Dab][Dab][Dab][dL]L[Dab][Dab]T; lactam 4-C) [listing 2 of 2 here], the ED50 [2] was 0.39 mg/kg, the ED50 [3] was 0.98 mg/kg and the ED50 [4] was 0.47 mg/kg.

Work on `C[C@@H](O)[C@H]1C(=O)N2C(C(=O)O)=C(S[C@@H]3CN[C@H](C(=O)N(C)C)C3)[C@H](C)[C@H]12` [MEROPENEM] yielded an ED50 [5] of 7.07 mg/kg and a survival at 20 mg/kg [6] of 100%.
